The structures appear in SMILES notation.

The target in one experiment is T1, TLR8 (Homo sapiens, UniProt Q9NR97).
T1 construct: expressed in transfected cells; host or cells: HEK/293 reporter cells (NF-kB luciferase)
T1 sequence (Q9NR97 27-1041): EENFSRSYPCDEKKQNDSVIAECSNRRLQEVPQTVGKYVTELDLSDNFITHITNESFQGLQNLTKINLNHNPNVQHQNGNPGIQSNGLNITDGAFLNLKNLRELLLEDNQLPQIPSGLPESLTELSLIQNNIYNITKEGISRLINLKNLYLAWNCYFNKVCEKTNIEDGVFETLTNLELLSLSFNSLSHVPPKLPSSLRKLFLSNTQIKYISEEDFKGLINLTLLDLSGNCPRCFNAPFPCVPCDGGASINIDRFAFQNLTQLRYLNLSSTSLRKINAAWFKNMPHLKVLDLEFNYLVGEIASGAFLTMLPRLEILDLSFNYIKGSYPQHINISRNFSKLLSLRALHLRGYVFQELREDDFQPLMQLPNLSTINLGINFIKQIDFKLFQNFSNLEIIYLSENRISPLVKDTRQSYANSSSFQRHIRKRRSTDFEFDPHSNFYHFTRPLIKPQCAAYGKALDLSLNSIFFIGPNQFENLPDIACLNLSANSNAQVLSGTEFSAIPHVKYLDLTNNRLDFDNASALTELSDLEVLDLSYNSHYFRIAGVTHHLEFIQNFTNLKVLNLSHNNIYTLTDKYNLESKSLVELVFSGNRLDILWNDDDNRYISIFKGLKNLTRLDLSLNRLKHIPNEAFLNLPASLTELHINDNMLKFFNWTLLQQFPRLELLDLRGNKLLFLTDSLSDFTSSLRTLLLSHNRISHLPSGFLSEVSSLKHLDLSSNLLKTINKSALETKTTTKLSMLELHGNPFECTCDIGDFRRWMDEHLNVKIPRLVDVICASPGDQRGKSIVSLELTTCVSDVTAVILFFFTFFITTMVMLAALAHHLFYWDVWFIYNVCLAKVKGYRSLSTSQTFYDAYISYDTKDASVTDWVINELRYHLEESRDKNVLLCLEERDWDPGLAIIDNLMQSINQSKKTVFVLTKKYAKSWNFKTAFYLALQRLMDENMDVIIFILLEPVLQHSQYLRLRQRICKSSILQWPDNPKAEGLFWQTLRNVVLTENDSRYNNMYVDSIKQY
Briefly: HEK/293 TLR8 Cell Assay. As to conditions: HEK cells, R848 agonist 30 uM final concentration, Steady-Glo readout; read-out: TLR8 potency. Type of experiment: cell-based.

The next experiment has as its target T2, TLR7 (Homo sapiens, UniProt Q9NYK1).
T2 construct: expressed in transfected cells; host or cells: HEK/293 cells carrying TLR7 and an NF-kB luciferase reporter
T2 sequence (Q9NYK1 27-1049): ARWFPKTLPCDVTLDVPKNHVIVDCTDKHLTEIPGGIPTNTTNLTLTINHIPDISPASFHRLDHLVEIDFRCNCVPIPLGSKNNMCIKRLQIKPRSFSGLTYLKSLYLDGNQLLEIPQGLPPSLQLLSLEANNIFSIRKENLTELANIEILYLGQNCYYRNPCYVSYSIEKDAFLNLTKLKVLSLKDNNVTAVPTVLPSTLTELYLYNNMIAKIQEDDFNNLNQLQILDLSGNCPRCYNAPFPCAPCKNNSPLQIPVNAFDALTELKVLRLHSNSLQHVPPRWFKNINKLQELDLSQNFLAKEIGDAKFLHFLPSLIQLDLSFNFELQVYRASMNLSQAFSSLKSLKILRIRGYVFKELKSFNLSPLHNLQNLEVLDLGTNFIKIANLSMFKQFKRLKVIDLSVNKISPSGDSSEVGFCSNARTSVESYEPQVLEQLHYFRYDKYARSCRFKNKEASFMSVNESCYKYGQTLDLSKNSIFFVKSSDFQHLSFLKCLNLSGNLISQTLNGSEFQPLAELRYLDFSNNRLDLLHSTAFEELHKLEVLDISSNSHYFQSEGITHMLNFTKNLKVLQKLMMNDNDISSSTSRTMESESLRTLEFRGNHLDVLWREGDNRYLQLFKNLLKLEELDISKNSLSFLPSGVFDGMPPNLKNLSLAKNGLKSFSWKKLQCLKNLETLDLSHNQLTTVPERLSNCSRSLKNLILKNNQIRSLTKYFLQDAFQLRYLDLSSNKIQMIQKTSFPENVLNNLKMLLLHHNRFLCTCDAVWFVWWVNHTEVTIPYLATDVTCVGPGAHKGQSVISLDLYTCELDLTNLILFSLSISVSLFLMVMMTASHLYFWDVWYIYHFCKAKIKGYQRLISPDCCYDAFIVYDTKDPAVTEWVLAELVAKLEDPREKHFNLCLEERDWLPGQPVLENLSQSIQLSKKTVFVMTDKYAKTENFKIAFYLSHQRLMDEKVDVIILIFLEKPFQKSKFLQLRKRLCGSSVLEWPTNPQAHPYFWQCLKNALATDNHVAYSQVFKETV
Briefly: HEK/293 TLR7 Cell Assay. Type of experiment: cell-based. As to conditions: TLR7/NFKb HEK cells, R848 agonist 10 uM final concentration, Steady-Glo readout; read-out: TLR7 potency. In outline: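 Compounds added to HEK cells expressing TLR7 with an NFκB reporter 30 min ahead of 10 uM R848 challenge; luciferase signal (Steady-Glo) measured after 5 h, cells having been seeded 24 h earlier at 5000 per well.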

As for `C[C@@H]1CN(c2ccc(C(F)(F)F)c3ncccc23)C[C@H](CN2CCC(C(C)(C)O)C2)O1` (stereo partly drawn) [Example 331, 2-{1-[(2S,6R)-6-Methyl-4-(8-trifluoromethyl-quinolin-5-yl)-morpholin-2-ylmethyl]-pyrrolidin-3-yl}-propan-2-ol], the IC50 at TLR8 was 75 to 150 nM; on TLR7 it was < 75 nM.

For `CC(=O)N1CCC(NC[C@H]2CN(c3cnc(C#N)c4ncccc34)C[C@@H](C)O2)CC1` [Example 381, 5-{(2S,6R)-2-[(1-Acetyl-piperidin-4-ylamino)-methyl]-6-methyl-morpholin-4-yl}-[1,7]naphthyridine-8-carbonitrile], the IC50 at TLR8 and on TLR7 was > 150 nM each time.

For `C[C@H]1C[C@@H](NC2CS(=O)(=O)C2)CN(c2ccc(C#N)c3nccnc23)C1` [Example 12, 8-[(3R,5S)-3-(1,1-Dioxo-1lambda6-thietan-3-ylamino)-5-methyl-piperidin-1-yl]-quinoxaline-5-carbonitrile], the IC50 at TLR8 is 75 to 150 nM; on TLR7, > 150 nM.

Regarding `C[C@@H]1CN(c2cnc(C#N)c3ncccc23)C[C@H](CN2CCC(F)(CN)CC2)O1` [Example 370, 5-[(2S,6R)-2-(4-Aminomethyl-4-fluoro-piperidin-1-ylmethyl)-6-methyl-morpholin-4-yl]-[1,7]naphthyridine-8-carbonitrile], the IC50 at TLR8 and at TLR7 was < 75 nM each time.

Take `CN1CC[C@@](F)(CNC(=O)[C@@H]2CN(c3ccc(C#N)c4nccnc34)C[C@H](C(F)(F)F)O2)C1` (single isomer, unassigned) [Example 356]: the IC50 at TLR8 and at TLR7 was < 75 nM throughout.

In the case of `Cc1c(F)cc(N2C[C@H](CN3CCC(N4CCCC4)CC3)O[C@H](C)C2)c2cccnc12` [Example 223, 7-Fluoro-8-methyl-5-[(2R,6S)-2-methyl-6-(4-pyrrolidin-1-yl-piperidin-1-ylmethyl)-morpholin-4-yl]-quinoline], the IC50 on TLR8 and at TLR7 was < 75 nM in each case.

`C[C@H]1C[C@@H](NC(=O)CN(CCN)CCO)CN(c2ccc(C#N)c3nccnc23)C1` [Example 150, 2-[(2-Amino-ethyl)-(2-hydroxy-ethyl)-amino]-N-[(3R,5S)-1-(8-cyano-quinoxalin-5-yl)-5-methyl-piperidin-3-yl]-acetamide]: the IC50 on TLR8 and at TLR7 was < 75 nM throughout.

For `C[C@H]1C[C@@H](NC(=O)CCN(C)C)CN(c2ccc(C#N)c3nccnc23)C1` [Example 79], the IC50 at TLR8 and at TLR7 was < 75 nM throughout.

With `COC[C@H](O)CNC(=O)[C@H]1CN(c2ccc(C#N)c3nccnc23)C[C@@H](C)O1` (single isomer, unassigned) [Example 326], the IC50 at TLR8 was < 75 nM; at TLR7, 75 to 150 nM.

Take `N#Cc1ccc(N2C[C@@H](C(=O)N[C@H]3CNC[C@H]3F)O[C@@H](C(F)(F)F)C2)c2nccnc12` (single isomer, unassigned) [Example 304]: the IC50 on TLR8 and on TLR7 was < 75 nM each time.

Take `C[C@@H]1CN(c2cnc(C#N)c3ncccc23)C[C@H](CNCC2(F)CCOCC2)O1` [Example 377, 5-((2S,6R)-2-{[(4-Fluoro-tetrahydro-pyran-4-ylmethyl)-amino]-methyl}-6-methyl-morpholin-4-yl)-[1,7]naphthyridine-8-carbonitrile]: the IC50 on TLR8 and on TLR7 was > 150 nM each time.

As for `CC(C(=O)N[C@@H]1C[C@H](C)CN(c2ccc(C#N)c3ncncc23)C1)N1CCN(C)CC1` (single isomer, unassigned) [Example 96], the IC50 at TLR8 is > 150 nM; on TLR7, 75 to 150 nM.

Take `C[C@@H](O)[C@H](N)C(=O)N1CCC(CC(=O)N[C@@H]2C[C@H](C(F)(F)F)CN(c3ccc(C#N)c4ncccc34)C2)CC1` [Example 184, 2-[1-((2S,3R)-2-Amino-3-hydroxy-butyryl)-piperidin-4-yl]-N-[(3R,5S)-1-(8-cyano-quinolin-5-yl)-5-trifluoromethyl-piperidin-3-yl]-acetamide]: the IC50 on TLR8 was 75 to 150 nM; at TLR7 it was > 150 nM.

As to `CC(=O)NCCN[C@@H]1C[C@H](C)CN(c2ccc(C#N)c3nccnc23)C1` [Example 49, N-{2-[(3R,5S)-1-(8-Cyano-quinoxalin-5-yl)-5-methyl-piperidin-3-ylamino]-ethyl}-acetamide], the IC50 at TLR8 and on TLR7 was < 75 nM throughout.

Consider `C[C@H]1C[C@@H](NCC2(O)CCOCC2)CN(c2ccc(C(F)(F)F)c3ncccc23)C1` [Example 50, 4-{[(3R,5S)-5-Methyl-1-(8-trifluoromethyl-quinolin-5-yl)-piperidin-3-ylamino]-methyl}-tetrahydro-pyran-4-ol], for which the IC50 at TLR8 and on TLR7 was < 75 nM each time.

As to `C[C@@H]1CN(c2ccc(C#N)c3nccnc23)C[C@H](C(=O)NC[C@@H]2COCCN2C)O1` (single isomer, unassigned) [Example 264], the IC50 on TLR8 and at TLR7 was < 75 nM throughout.

`C[C@@H](C(=O)N[C@@H]1C[C@H](C(F)(F)F)CN(c2ccc(C(F)(F)F)c3ncccc23)C1)N1CCN(C)CC1` (single isomer, unassigned) [Example 95]: the IC50 on TLR8 and at TLR7 was < 75 nM each time.

`Cc1ccc(N2C[C@@H](C)C[C@@H](NC(=O)[C@@H](N)CC(N)=O)C2)c2cccnc12` [Example 130, (2S)-2-amino-N-[(3R,5S)-5-methyl-1-(8-methylquinolin-5-yl)piperidin-3-yl]butanediamide]: the IC50 at TLR8 was < 75 nM; on TLR7, 75 to 150 nM.

In the case of `C[C@H]1C[C@@H](NCC(C)(C)O)CN(c2ccc(C(F)(F)F)c3ncccc23)C1` [Example 17, 2-Methyl-1-[(3R,5S)-5-methyl-1-(8-trifluoromethyl-quinolin-5-yl)-piperidin-3-ylamino]-propan-2-ol], the IC50 at TLR8 and at TLR7 was < 75 nM each time.

Regarding `N#Cc1ccc(N2C[C@@H](C(=O)NCC3(F)CCNCC3)O[C@@H](C(F)(F)F)C2)c2nccnc12` (single isomer, unassigned) [Example 306], the IC50 on TLR8 and on TLR7 was < 75 nM in each case.

As to `N#Cc1ccc(N2C[C@@H](C(=O)NC[C@@H](O)CO)O[C@@H](C(F)(F)F)C2)c2nccnc12` (single isomer, unassigned) [Example 283], the IC50 on TLR8 and on TLR7 was > 150 nM in each case.

Consider `C[C@@H]1CN(c2ccc(C#N)c3nccnc23)C[C@H](C(=O)NC2CCN(CC(F)(F)F)CC2)O1` [Example 247, (2R,6R)-4-(8-Cyano-quinoxalin-5-yl)-6-methyl-morpholine-2-carboxylic acid [1-(2,2,2-trifluoro-ethyl)-piperidin-4-yl]-amide], for which the IC50 at TLR8 and on TLR7 was < 75 nM throughout.

(Values after patent US20210300940A1 (Merck Patent GmbH, priority 2018, published 2021).)
